# Measurements: paper PMC6277375, “Pharmacological profile of the neuropeptide S receptor: Dynamic mass redistribution studies” (Pharmacology Research & Perspectives, 2018)
# Where “and” joins values, the source holds several entries; their conditions need not be identical. Equal entries are not always repeated. Marks after values point to notes of the source that are not given here. Numbered stars: 1 amine (or outer) side, 2 acyl side, 3 side chain; on linkers, the order of the positions; unused ones are H or OH. Bridge positions count the residues as written; N and C are the ends. Square brackets hold non-standard residues; d marks the D form. Peptide text beside a SMILES is read from it. * marks the point of attachment. Leu(3R-OH,Nα-propionyl) = CCC(=O)N[C@H](C(=O)*)[C@H](O)C(C)C; X1 = CC(C)[C@@H](O[*:3])[C@H](N[*:1])C(=O)[*:2]; NMeT = CN[C@H](C(=O)O)[C@@H](C)O; dPhLac = O=C(O)[C@H](O)Cc1ccccc1; NMeA = CN[C@@H](C)C(=O)O; NMeDha = C=C(NC)C(=O)O
# Legend:
# [1] = target: T1, murine NPSR (Mus musculus, UniProt Q8BZP8); test: Calcium mobilization assay in HEK293mNPSR cells; assay type: cell-based; conditions: FR900359 injected 24 minute before NPS, Fluo-4 AM, FlexStation II, 37°C
# T1 construct: expressed in transfected cells
# T1 sequence (Q8BZP8 1-371): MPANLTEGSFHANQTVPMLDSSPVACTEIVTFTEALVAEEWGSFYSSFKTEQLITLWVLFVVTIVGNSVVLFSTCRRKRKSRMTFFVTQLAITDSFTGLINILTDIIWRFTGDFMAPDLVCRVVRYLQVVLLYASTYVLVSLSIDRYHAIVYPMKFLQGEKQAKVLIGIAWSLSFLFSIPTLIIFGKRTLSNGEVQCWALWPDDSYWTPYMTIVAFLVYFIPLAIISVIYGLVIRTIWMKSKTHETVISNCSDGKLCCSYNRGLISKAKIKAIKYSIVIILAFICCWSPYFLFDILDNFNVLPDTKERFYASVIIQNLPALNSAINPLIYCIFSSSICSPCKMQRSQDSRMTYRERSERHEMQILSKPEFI
# Procedure: Cells were seeded at a density of 50 000 cells/well in 100 μL into poly‐D‐lysine coated 96‐well black, clear‐bottom plates. The following day, cells were incubated with medium supplemented with 2.5 mmol L^−1 probenecid, 3 μmol L^−1 of the calcium sensitive fluorescent dye Fluo‐4 AM and 0.01% pluronic acid, for 30 minute at 37°C. Following this, the loading solution was aspirated and 100 μL of HBSS supplemented with 20 mmol L^−1 HEPES, 2.5 mmol L^−1 probenecid and 500 μmol L^−1 Brilliant Black were added. Cell culture and drug plates were placed into a fluorimetric imaging plate reader (FlexStation II, Molecular Devices, Sunnyvale, CA) and fluorescent changes were measured. On‐line additions were carried out in a volume of 50 μL/well. To facilitate drug diffusion into the wells, the present studies were performed at 37°C and three cycles of mixing (25 μL from each well moved up and down three times) were performed immediately after FR900359 injection to the wells. FR900359 was injected into the wells 24 minute before adding NPS.
# All data were analyzed using Graph Pad Prism 6.0 (La Jolla, CA, USA). […] Data are expressed as mean ± SEM of n experiments performed in duplicate and were analyzed using one‐ or two‐way analysis of variance (ANOVA) followed by Dunnett's or Tukey's test for multiple comparisons wherever appropriate. […]
# [2] = target: T1, murine NPSR; test: Dynamic mass redistribution (DMR) assay in HEK293mNPSR cells; assay type: cell-based; conditions: for DMR response, HEK293mNPSR pm ± SEM: peak at 60 minute, mean ± SEM, duplicate
# Procedure: (§1) HEK293 cells stably expressing the murine NPSR receptor (HEK293mNPSR) were described previously.3 Wild‐type HEK293 cells were used as a control. Cells were maintained in Dulbecco's Medium (DMEM) supplemented with 10% fetal bovine serum, 100 U/mL penicillin, 100 μg/mL streptomycin and, 2 mmol L^−1 L‐glutamine. The medium was complemented with 100 mg/L hygromycin for HEK293mNPSR. Cells were cultured at 37°C in 5% CO2 humidified air.
# Confluent cells were subcultured using trypsin/EDTA and used for experiments. […] On the day of the experiment, cells were manually washed twice and maintained with assay buffer for 90 minutes before DMR experiments. DMR was monitored in real time with a temporal resolution of 22 seconds throughout the assay. Experiments were performed at 37°C, using an EnSight Multimode Plate Reader (PerkinElmer), that uses the Corning® Epic® Technology to measure the DMR signal. Agonism protocol: a 5‐minute baseline was first established, followed by adding compounds manually in a volume of 10 μL and recording compounds‐triggered DMR signal for 60 minute. Antagonism protocol: antagonists were added manually 25 minute before reading the 5‐minute baseline. After baseline establishment, NPS was injected and DMR signal was recorded for 60 minute. Antagonist properties of ligands were measured by assessing the concentration‐response curve to NPS in the absence and in presence of a fixed concentration of compound. FR900359 was added 60 minute before NPS, rolipram was incubated for 90 minute before NPS, while PTX was added 24 hours before NPS. Maximum picometer (pm) modifications (peak measured at 60 minute time point) were used to determine agonist response after baseline normalization.
# All data were analyzed using Graph Pad Prism 6.0 (La Jolla, CA, USA). Concentration‐response curves were fitted using the four parameters log logistic equation. Data are expressed as mean ± SEM of n experiments performed in duplicate and were analyzed using one‐ or two‐way analysis of variance (ANOVA) followed by Dunnett's or Tukey's test for multiple comparisons wherever appropriate. […] Antagonists potencies were assayed at single concentrations against the concentration‐response curve to NPS and their pA2 was derived using the following equation: pA2 = log(CR − 1) − log[A], where CR is the ratio between agonist potency (EC50) in the presence and in absence of antagonist and [A] is the molar concentration of antagonist.
# [3] = test system: HEK293mNPSR cells; test: DMR response to NECA with and without rolipram in HEK293mNPSR cells; assay type: cell-based; conditions: NECA 10 μmol L^−1 + rolipram 10 μmol L^−1 (90 minute before), P < 0.05 vs NECA alone
# Procedure: Confluent cells were subcultured using trypsin/EDTA and used for experiments. Cells were seeded at a density of 20 000 cells/well in 30 μL into fibronectin‐coated Enspire™‐LC 384‐wells plates and cultured for 20 hours to form a confluent monolayer. On the day of the experiment, cells were manually washed twice and maintained with assay buffer for 90 minutes before DMR experiments. DMR was monitored in real time with a temporal resolution of 22 seconds throughout the assay. Experiments were performed at 37°C, using an EnSight Multimode Plate Reader (PerkinElmer), that uses the Corning® Epic® Technology to measure the DMR signal. Agonism protocol: a 5‐minute baseline was first established, followed by adding compounds manually in a volume of 10 μL and recording compounds‐triggered DMR signal for 60 minute. Antagonism protocol: antagonists were added manually 25 minute before reading the 5‐minute baseline. After baseline establishment, NPS was injected and DMR signal was recorded for 60 minute. Antagonist properties of ligands were measured by assessing the concentration‐response curve to NPS in the absence and in presence of a fixed concentration of compound. […] Maximum picometer (pm) modifications (peak measured at 60 minute time point) were used to determine agonist response after baseline normalization. […]
# [4] = test system: wild-type HEK293 cells; test: DMR assay in wild-type HEK293 cells (control); assay type: cell-based, Human; conditions: ligand 10 μmol L^−1, 37°C, peak at 60 minute after baseline normalization, mean ± SEM, duplicate
# Procedure: as §1
# Confluent cells were subcultured using trypsin/EDTA and used for experiments. Cells were seeded at a density of 20 000 cells/well in 30 μL into fibronectin‐coated Enspire™‐LC 384‐wells plates and cultured for 20 hours to form a confluent monolayer. On the day of the experiment, cells were manually washed twice and maintained with assay buffer for 90 minutes before DMR experiments. DMR was monitored in real time with a temporal resolution of 22 seconds throughout the assay. Experiments were performed at 37°C, using an EnSight Multimode Plate Reader (PerkinElmer), that uses the Corning® Epic® Technology to measure the DMR signal. Agonism protocol: a 5‐minute baseline was first established, followed by adding compounds manually in a volume of 10 μL and recording compounds‐triggered DMR signal for 60 minute. Antagonism protocol: antagonists were added manually 25 minute before reading the 5‐minute baseline. After baseline establishment, NPS was injected and DMR signal was recorded for 60 minute. Antagonist properties of ligands were measured by assessing the concentration‐response curve to NPS in the absence and in presence of a fixed concentration of compound. FR900359 was added 60 minute before NPS, rolipram was incubated for 90 minute before NPS, while PTX was added 24 hours before NPS. Maximum picometer (pm) modifications (peak measured at 60 minute time point) were used to determine agonist response after baseline normalization.
# All data were analyzed using Graph Pad Prism 6.0 (La Jolla, CA, USA). Concentration‐response curves were fitted using the four parameters log logistic equation. Data are expressed as mean ± SEM of n experiments performed in duplicate and were analyzed using one‐ or two‐way analysis of variance (ANOVA) followed by Dunnett's or Tukey's test for multiple comparisons wherever appropriate. Agonist potency was expressed as pEC50, which is the negative logarithm to base 10 of the agonist molar concentration that produces 50% of the maximal possible effect of that agonist. Antagonists potencies were assayed at single concentrations against the concentration‐response curve to NPS and their pA2 was derived using the following equation: pA2 = log(CR − 1) − log[A], where CR is the ratio between agonist potency (EC50) in the presence and in absence of antagonist and [A] is the molar concentration of antagonist.
# [5] = test system: NPSR; conditions: cited from earlier work
# Description: The pharmacological profile of NPSR in the DMR assay has been investigated using several NPSR ligands acting as full and partial agonists and pure antagonists in the calcium mobilization assay. The DMR effects of these compounds solely derive from their capability to activate NPSR since we selected their concentration range based on lack of DMR signal in wild‐type cells. Overall, the DMR pharmacological profile of NPSR looks similar but not identical to that reported in literature using the calcium mobilization assay. The first aspect that deserves attention is related to the efficacy of NPSR ... || Regarding NPSR agonists, another point that must be addressed is the pharmacological behavior of PWT1‐NPS. […] The high in vitro potency of PWT1‐NPS was associated with a high in vivo potency and long‐lasting duration of action.31 These features seem to be common to PWT derivatives of other neuropeptides including nociceptin/orphanin FQ, opioids and tachykinins (reviewed in 40). In DMR experiments, we were not able to fully investigate the pharmacologic ...
compound,measurement,setting,value
"C=C1C(=O)N[C@@H](C)C(=O)N(C)[C@@H](C)C(=O)N[C@@H]([C@H](OC(=O)[C@@H](NC(=O)CC)[C@H](O)C(C)C)C(C)C)C(=O)N(C)[C@@H]([C@@H](C)OC)C(=O)O[C@H](C(C)C)[C@H](NC(C)=O)C(=O)O[C@H](Cc2ccccc2)C(=O)N1C [FR900359, [(1R)‐1‐[(3S,6S,9S,12S,18R,21S,22R)‐21‐acetamido‐18‐benzyl‐3‐[(1R)‐1‐methoxyethyl]‐4,9,10,12,16‐pentamethyl‐15‐methylidene‐2,5,8,11,14,17,20‐heptaoxo‐22‐propan‐2‐yl‐1,19‐dioxa‐4,7,10,13,16‐pentazacyclodocos‐6‐yl]‐2‐methylpropyl] (2S,3R)‐3‐hydroxy‐4‐methyl‐2‐(propanoylamino)pentanoate, reference compound] (Ac-[X1][dPhLac][NMeDha]A[NMeA][X1](Leu(3R-OH,Nα-propionyl))[NMeT](Me); ester 1-C)",Effect of inhibitor on NPS stimulated calcium mobilization,[1],completely abolished
same,Effect of inhibitor on NPS-evoked DMR response,"[2]; FR900359 1 μmol L^−1 (60 minute before NPS), PTX 100 ng mL^−1 (24 hours before), rolipram 10 μmol L^−1 (90 minute before)","strongly, but not completely, reduced NPS effects"
"CCNC(=O)[C@H]1O[C@@H](n2cnc3c(N)ncnc32)[C@H](O)[C@@H]1O [NECA, (2S,3S,4R,5R)‐5‐(6‐aminopurin‐9‐yl)‐N‐ethyl‐3,4‐dihydroxyoxolane‐2‐carboxamide, reference compound]",DMR response of NECA in presence of rolipram,[3],464 ± 58 pm
same,"DMR response, HEK293 pm ± SEM",[4],312 ± 28 ^a pm
same,"DMR response, HEK293mNPSR pm ± SEM","[2]; ligand 10 μmol L^−1, 37°C",229 ± 18 pm and 229 ± 18 ^a pm
[D‐Cys(^tBu)^5]NPS,behaviour in the calcium mobilization assay,[5],pure NPSR antagonist
same,"DMR response, HEK293mNPSR pm ± SEM","[2]; ligand 1 μmol L^−1, 37°C",387 ± 43 pm and 387 ± 43 ^a pm
same,DMR response as % of NPS maximal effect,[2]; ligand 1 μmol L^−1 alone,58%
